From BindingDB's records for doi:10.1021/jm00043a010 (University of South Florida, 1994)

Molecular target: Adenosine receptor A1 (Mesocricetus auratus)
Test: Inhibition of specific binding of [3H]CPX to the A1 adenosine receptor in DDT1 MF-2 (DDT) cells.

Row | Structure (SMILES) | IC50
1 | CCCn1c(=O)c2[nH]c(CCCCCN3C(=O)C=CC3=O)nc2n(CCC)c1=O [8-[5-(2,5-Dioxo-2,5-dihydro-pyrrol-1-yl)-pentyl]-1,3-dipropyl-3,7-dihydro-purine-2,6-dione] | 2.2 µM
2 | CCCn1c(=O)c2[nH]c(CNC(=O)c3ccccc3)nc2n(CCC)c1=O [N-(2,6-Dioxo-1,3-dipropyl-2,3,6,7-tetrahydro-1H-purin-8-ylmethyl)-benzamide] | 6.3 µM
3 | CCCn1c(=O)c2[nH]c(CCNC(=O)c3ccc(S(=O)(=O)F)cc3)nc2n(CCC)c1=O [4-[2-(2,6-Dioxo-1,3-dipropyl-2,3,6,7-tetrahydro-1H-purin-8-yl)-ethylcarbamoyl]-benzenesulfonyl fluoride] | 0.7 µM
4 | CCCn1c(=O)c2[nH]c(NC(=O)c3ccc(S(=O)(=O)F)cc3)nc2n(CCC)c1=O [4-(2,6-Dioxo-1,3-dipropyl-2,3,6,7-tetrahydro-1H-purin-8-ylcarbamoyl)-benzenesulfonyl fluoride] | 4.2 µM
5 | CCCn1c(=O)c2[nH]c(CCCCCNC(=O)CBr)nc2n(CCC)c1=O [2-Bromo-N-[5-(2,6-dioxo-1,3-dipropyl-2,3,6,7-tetrahydro-1H-purin-8-yl)-pentyl]-acetamide] | 1.2 µM
6 | O=C(OCCCn1c(=O)c2[nH]c(C3CCCC3)nc2n(CCCOC(=O)c2ccc(S(=O)(=O)F)cc2)c1=O)c1ccc(S(=O)(=O)F)cc1 [8-cyclopentyl-1,3-di[3-(4-fluorosulfonylphenylcarbonyloxy)propyl]-2,6-dioxo-2,3,6,7-tetrahydro-1H-purine] | 3.5 µM
7 | CCCn1c(=O)c2[nH]c(CCNC(=O)CBr)nc2n(CCC)c1=O [2-Bromo-N-[2-(2,6-dioxo-1,3-dipropyl-2,3,6,7-tetrahydro-1H-purin-8-yl)-ethyl]-acetamide] | 4 µM
8 | CCCn1c(=O)c2[nH]c(C3CCC(OC(=O)c4ccc(S(=O)(=O)F)cc4)C3)nc2n(CCC)c1=O (centres undefined) [4-Fluorosulfonyl-benzoic acid 3-(2,6-dioxo-1,3-dipropyl-2,3,6,7-tetrahydro-1H-purin-8-yl)-cyclopentyl ester] | 0.06 µM
9 | CCCn1c(=O)c2[nH]c(C3CCCC3)nc2n(CCCOC(=O)c2cccc(S(=O)(=O)F)c2)c1=O [3-Fluorosulfonyl-benzoic acid 3-(8-cyclopentyl-2,6-dioxo-1-propyl-1,2,6,7-tetrahydro-purin-3-yl)-propyl ester] | 0.02 µM
10 | CCCn1c(=O)c2[nH]c(CNC(=O)CBr)nc2n(CCC)c1=O [2-Bromo-N-(2,6-dioxo-1,3-dipropyl-2,3,6,7-tetrahydro-1H-purin-8-ylmethyl)-acetamide] | 11 µM
11 | CCCn1c(=O)c2[nH]c(NC(=O)c3cccc(S(=O)(=O)F)c3)nc2n(CCC)c1=O [3-(2,6-Dioxo-1,3-dipropyl-2,3,6,7-tetrahydro-1H-purin-8-ylcarbamoyl)-benzenesulfonyl fluoride] | 3.5 µM
12 | CCCn1c(=O)c2[nH]c(-c3ccc(Cl)c([N+](=O)[O-])c3)nc2n(CCC)c1=O [8-(4-Chloro-3-nitro-phenyl)-1,3-dipropyl-3,7-dihydro-purine-2,6-dione] | 7 µM
13 | CCCn1c(=O)c2[nH]c(CNC(=O)c3ccc(S(=O)(=O)F)cc3)nc2n(CCC)c1=O [4-[(2,6-Dioxo-1,3-dipropyl-2,3,6,7-tetrahydro-1H-purin-8-ylmethyl)-carbamoyl]-benzenesulfonyl fluoride] | 2 µM
14 | CCCn1c(=O)c2[nH]c(CCCNC(=O)c3cccc(S(=O)(=O)F)c3)nc2n(CCC)c1=O [3-[3-(2,6-Dioxo-1,3-dipropyl-2,3,6,7-tetrahydro-1H-purin-8-yl)-propylcarbamoyl]-benzenesulfonyl fluoride] | 2.6 µM
